Experimental data taken from the NIST ThermoML archive (doi:10.1016/j.tca.2013.03.017).

Assays:
[1] = 101 kPa, Liquid, Hot wire method
[2] = molar heat capacity at constant pressure; details: 101 kPa, Liquid, Small sample (50 mg) DSC
[3] = xn = mol fraction of the nth substance listed; details: 101 kPa, Liquid, Hot wire method, x2 = 0
[4] = molar heat capacity at constant pressure; xn = mol fraction of the nth substance listed; details: 101 kPa, Liquid, Small sample (50 mg) DSC, x2 = 0

O=S1(=O)CCCC1 [sulfolane]
Details	molar heat capacity at constant pressure, [2] [J/K/mol]	thermal conductivity, [1] [W/m/K]
303.15 K	181.5	0.1678
313.15 K	185.1	0.1656
323.15 K	188.7	0.1634
333.15 K	192.3	0.1616
343.15 K	194.3	0.1593
353.15 K	197.8	0.1581

O [water]
Details	molar heat capacity at constant pressure, [2] [J/K/mol]	thermal conductivity, [1] [W/m/K]
303.15 K	75.3	0.6137
313.15 K	75.26	0.6307
323.15 K	75.3	0.6437
333.15 K	75.39	0.6548
343.15 K	75.48	0.6632
353.15 K	75.6	0.67

O [water] + O=S1(=O)CCCC1
Details	molar heat capacity at constant pressure, [4] [J/K/mol]	thermal conductivity, [3] [W/m/K]
303.15 K	75.3	0.6137
313.15 K	75.26	0.6307
323.15 K	75.3	0.6437
333.15 K	75.39	0.6548
343.15 K	75.48	0.6632
353.15 K	75.6	0.67
